What all share (assay type): cell-based
For data set [1], the system named is LS180 (colon cancer cell line). The data set is described as follows: BrdU assay. The following applies: Homo sapiens, 24 h, read-out: IC50 ± SD, antiproliferative activity. The procedure:
(§1) Since the inhibition of human DNA topoisomerase II should result in decreased proliferation of cancer cells, compounds 1-3 were tested using BrdU assay against a panel of cancer cell lines, including MCF-7 (estrogen-dependent human breast cancer cells), MDA-MB-231 (estrogen-independent human breast cancer cells), SCC-25 (squamous cell carcinoma of the tongue), FaDu (squamous cell carcinoma of the pharynx), A549 (human lung carcinoma), AGS (human gastric adenocarcinoma), LS-180, HT-29 (colon cancer cell lines), T98G (glioblastoma cells), and A375 (melanoma cells). Human normal skin fibroblasts (CRL-2072) were also used as a reference cell line. The BrdU assay allows quantification of cell proliferation since it measures incorporation of thymidine analogue (BrdU) during DNA replication. […] However, although the antiproliferative effect caused by 3 was mostly weaker (except for A549 and A375) than observed for 1, but the former compound was also characterised by lower toxicity against human normal cells. It results in selectivity index approaching 125 and 57, when it comes to lung cancer (A549) and melanoma cells (A375), respectively.
(§2) Cytotoxicity of the synthesised compounds were examined against a panel of the cancer cell lines, MCF-7 (estrogen-dependent human breast cancer cells), MDA-MB-231 (oestrogen-independent human breast cancer cells), SCC- 25 (squamous cell carcinoma of the tongue), FaDu (squamous cell carcinoma of the pharynx), A- 549 (human lung carcinoma), AGS (human gastric adenocarcinoma), LS-180, HT-29 (colon cancer cell lines), T98G (glioblastoma cells), A375 (melanoma cells). Human embryonic kidney (HEK-293) cells and human normal skin fibroblasts (CRL-2072) were used as reference cell lines. The investigated cell lines were obtained from American Type Culture Collection (ATCC; Manassas, VA, USA). A375, MCF-7, MDA-MB-231, T98G cells were cultured in Dulbecco’s Modified Eagle’s Medium (DMEM) (Sigma Aldrich, St. Louis, MO, USA) supplemented with 10% heat inactivated foetal bovine serum (FBS), penicillin (100 U/mL), and streptomycin (100 μg/mL). SCC-25 cells were cultured in 1:1 mixture of Dulbecco’s modified Eagle’s medium and Ham’s F12 Medium (Sigma Aldrich, St. Louis, MO, USA) supplemented with 400 ng/ml hydrocortisone, 10% FBS, penicillin (100 U/mL), and streptomycin (100 μg/mL). A549 and AGS cells were maintained in F-12K Medium (Sigma Aldrich, St. Louis, MO, USA). LS-180 and FaDu cells were cultured in Eagle’s Minimum Essential Medium. HT-29 cells were maintained in McCoy’s 5 A Medium (Sigma Aldrich, St. Louis, MO, USA) supplemented with 10%FBS, penicillin (100 U/mL), and streptomycin (100 μg/mL). All the cells were maintained at 37 °C in a humidified atmosphere of 5% CO2.
(§3) The BrdU assay was performed to determine the effect of synthesised compounds on the proliferation of cancer cells. BrdU assay indicates the rate of incorporation of 5′-bromo-2′-deoxy-uridine (BrdU) during DNA biosynthesis. In brief, cells were plated in 96-well plates (NUNC, Roskilde, Denmark) at the density of 3 × 10^4 cells/mL. […] Cell proliferation was examined after 24 h and 48 h of incubation according to the manufacturer’s protocol (Cell Proliferation ELISA BrdU, Roche Diagnostics GmbH, Penzberg,)Germany).
A general note: Dividing cells build labelled thymidine or BrdU into new DNA.

Data set [2] deals with FaDu (squamous cell carcinoma of the pharynx). Briefly: BrdU assay. The following applies: Homo sapiens, 24 h, read-out: IC50 ± SD, antiproliferative activity. How it is done: as §1, §2, §3
Data set [3] concerns MCF-7 (estrogen-dependent human breast cancer cells). The data set is described as follows: BrdU assay. As to conditions: MCF7, MCF-7, BrdU, 24 h, read-out: IC50 ± SD, antiproliferative activity. How it is done:
as §1, §2, §3

The test system of data set [4] is Human normal skin fibroblasts (CRL-2072). Briefly: BrdU assay. As to conditions: Skin fibroblast, 24 h, read-out: IC50 ± SD, antiproliferative activity. How it is done: as §1, §2, §3
For data set [5], the system named is T98G (glioblastoma cells). Briefly: BrdU assay. The following applies: Homo sapiens, 24 h, read-out: IC50 ± SD, antiproliferative activity. How it is done:
as §1, §2, §3

Data set [6] has as its system SCC-25 (squamous cell carcinoma of the tongue). The data set is described as follows: BrdU assay. As to conditions: Homo sapiens; SCC-25, BrdU, 24 h; read-out: IC50 ± SD, antiproliferative activity. The procedure:
as §1, §2, §3

In data set [7] the test system is FaDu (squamous cell carcinoma of the pharynx). The data set is described as follows: MTT assay. The following applies: Homo sapiens, read-out: IC50, cytotoxicity. A digest of the protocol:
(§4)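 Cytotoxicity is measured by MTT reduction after 24 and 48 h of exposure to the compounds over 1–100 µg/ml. DMSO vehicle toxicity is checked at matching dilutions, and formazan dissolved in SDS is quantified at 570 nm to give IC50 values.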
(Formazan colour is commonly taken as a measure of viable cells.)

The subject of data set [8] is MDA-MB-231 (estrogen-independent human breast cancer cells). The data set is described as follows: MTT assay. As to conditions: MDA-MB-231, MTT, read-out: IC50, cytotoxicity. The gist of the method:
as §4

Data set [9] is described as follows: MTT assay. As to conditions: human, HEK-293 cells (normal reference cell line), HEK-293 (normal cells), read-out: IC50, cytotoxicity. The gist of the method:
as §4

Data set [10] relates to A375 (melanoma cells). The data set is described as follows: MTT assay. The following applies: Homo sapiens, read-out: IC50, cytotoxicity. The gist of the method:
as §4

In data set [11] the test system is T98G (glioblastoma cells). The data set is described as follows: MTT assay. As to conditions: Homo sapiens, read-out: IC50, cytotoxicity. The gist of the method: as §4

In brackets after ≈: the same amount, converted by molar mass. Read-outs that look alike come from different tables or passages of the source.

On to `O=C(NNC(=S)Nc1ccc(N=Nc2ccccc2)cc1)c1ccccc1[N+](=O)[O-]` [Compound 3, 4-(4-Phenylazophenyl)-1-(2-nitrobenzoyl)thiosemicarbazide], for which the IC50 turned out to be 10.6 ± 0.24 µg/mL (≈ 25.1 µM) in [1]; 9.04 ± 0.39 µg/mL (≈ 21.5 µM) in [2]; 32.5 ± 1.98 µg/mL (≈ 77.4 µM) in [3]; 32.1 ± 1.75 µg/mL (≈ 76.4 µM) in [4]; 6.28 ± 0.37 µg/mL (≈ 14.9 µM) in [5]; 4.89 ± 0.22 µg/mL (≈ 11.6 µM) in data set [6]. Besides, the IC50 in data set [7] (24h) came to 2.49 µg/mL (≈ 5.92 µM); in [7] (48 h), 2.18 µg/mL (≈ 5.18 µM); in data set [8] (24h) it was 10.5 µg/mL (≈ 24.9 µM); in data set [8] (48h) it was 6.02 µg/mL (≈ 14.3 µM); in data set [10] (A-375, 24h), 1.8 µg/mL (≈ 4.28 µM); in [10] (A-375, 48 h), 0.56 µg/mL (≈ 1.33 µM). Also, the IC50 came out at 3.35 µg/mL (≈ 7.97 µM) in data set [11] (24h) and 2.94 µg/mL (≈ 6.99 µM) in [11] (48h). In addition, the IC50 at 24 h in data set [9] worked out at 27.5 µg/mL (≈ 65.5 µM). Also, the IC50 at 48 h in data set [9] is 9.19 µg/mL (≈ 21.9 µM).
In the case of `COc1cc([C@@H]2c3cc4c(cc3[C@@H](O[C@@H]3O[C@@H]5CO[C@@H](C)O[C@H]5[C@H](O)[C@H]3O)[C@H]3COC(=O)[C@H]23)OCO4)cc(OC)c1O` [Etoposide, etoposide, reference compound], the IC50 in data set [1] was > 100 µg/mL; in data set [2] it was 12.8 ± 0.27 µg/mL (≈ 21.8 µM); in data set [3] it was 54.9 ± 1.82 µg/mL (≈ 93.3 µM); in data set [4] it was 55.7 ± 3.01 µg/mL (≈ 94.6 µM); in [5], 29.5 ± 0.93 µg/mL (≈ 50.1 µM); in data set [6], 21.2 ± 0.74 µg/mL (≈ 36 µM). Moreover, the IC50 was 12.5 µg/mL (≈ 21.3 µM) in [7] (24h); 10.7 µg/mL (≈ 18.2 µM) in data set [7] (48 h); > 100 µg/mL in data set [8] (24h); 40.3 µg/mL (≈ 68.5 µM) in [8] (48h); 10.2 µg/mL (≈ 17.3 µM) in [10] (A-375, 24h); 6.48 µg/mL (≈ 11 µM) in data set [10] (A-375, 48 h). Also, the half-inhibitory concentration (IC50) in data set [11] (24h) was > 100 µg/mL; in data set [11] (48h), 17.1 µg/mL (≈ 29 µM). In [9], the IC50 at 24 h worked out at 37.9 µg/mL (≈ 64.3 µM). The IC50 at 48 h in data set [9] stood at 29.1 µg/mL (≈ 49.5 µM).
In the case of `O=C(Cc1cccc2ccccc12)NNC(=S)Nc1ccc(N=Nc2ccccc2)cc1` [Compound 2, 4-(4-Phenylazophenyl)-1-[(naphth-1-yl)acetyl]thiosemicarbazide], the IC50 in data set [1] came out at 10.4 ± 0.77 µg/mL (≈ 23.6 µM); in [2] it was 7.11 ± 0.34 µg/mL (≈ 16.2 µM); in data set [3], 33.2 ± 1.05 µg/mL (≈ 75.4 µM); in data set [4], 24.2 ± 1.4 µg/mL (≈ 55 µM); in data set [5], 6.19 ± 1.83 µg/mL (≈ 14.1 µM); in data set [6], 1.06 ± 0.04 µg/mL (≈ 2.41 µM). Besides, the half-inhibitory concentration (IC50) was 2.75 µg/mL (≈ 6.26 µM) in data set [7] (24h); 2.54 µg/mL (≈ 5.78 µM) in data set [7] (48 h); 7.64 µg/mL (≈ 17.4 µM) in data set [8] (24h); 7.07 µg/mL (≈ 16.1 µM) in data set [8] (48h); 8.96 µg/mL (≈ 20.4 µM) in data set [10] (A-375, 24h); 2.47 µg/mL (≈ 5.62 µM) in data set [10] (A-375, 48 h). Also, the IC50 in [11] (24h) amounted to 5.53 µg/mL (≈ 12.6 µM); in data set [11] (48h), 4.85 µg/mL (≈ 11 µM). Moreover, the IC50 at 24 h in [9] amounted to 15.6 µg/mL (≈ 35.5 µM). The IC50 at 48 h in data set [9] came out at 10 µg/mL (≈ 22.8 µM).
For `CC(C)c1cccc(C(C)C)c1NC(=S)NNC(=O)Cc1cccc2ccccc12` [Compound 1, 4-(2,6-Diisopropylphenyl)-1-[(naphth-1-yl)acetyl]thiosemicarbazide], the IC50 in [1] is 4.68 ± 0.17 µg/mL (≈ 11.2 µM); in [2], 1.04 ± 0.04 µg/mL (≈ 2.48 µM); in [3] it was 1.19 ± 0.04 µg/mL (≈ 2.84 µM); in data set [4], 22.4 ± 0.94 µg/mL (≈ 53.3 µM); in data set [5] it was 0.72 ± 0.02 µg/mL (≈ 1.72 µM); in [6], 1.1 ± 0.02 µg/mL (≈ 2.62 µM). In addition, the IC50 was 7.26 µg/mL (≈ 17.3 µM) in data set [7] (24h); 2.01 µg/mL (≈ 4.79 µM) in data set [7] (48 h); 9.21 µg/mL (≈ 21.9 µM) in data set [8] (24h); 8.04 µg/mL (≈ 19.2 µM) in data set [8] (48h); 4.57 µg/mL (≈ 10.9 µM) in data set [10] (A-375, 24h); 1.82 µg/mL (≈ 4.34 µM) in data set [10] (A-375, 48 h). Further, the half-maximal inhibitory concentration (IC50) amounted to 6.98 µg/mL (≈ 16.6 µM) in [11] (24h) and 2.27 µg/mL (≈ 5.41 µM) in [11] (48h). For the same compound, in data set [9], the IC50 at 24 h worked out at 17.6 µg/mL (≈ 41.9 µM). The IC50 at 48 h in [9] worked out at 9.61 µg/mL (≈ 22.9 µM).

A word on the IC50: it is the midpoint of a concentration-inhibition curve.

Source of the values: PMC9648375, “Identification of the first-in-class dual inhibitors of human DNA topoisomerase IIα and indoleamine-2,3-dioxygenase 1 (IDO 1) with strong anticancer properties” (Journal of Enzyme Inhibition and Medicinal Chemistry, 2022).
